Results on 2 molecules are retold here after patent US20220233468A1 (priority 2021, published 2022).

Entries after “also recorded” stand apart in the source; their conditions may differ. Like-named read-outs stand apart in the source and are kept apart here.

One test deals with TMPRSS2. Put plainly: TMPRSS2 protein expression in cell lines by Western blotting. It counts as cell-based, human; mouse. The following applies: a-tubulin internal control, A549, H1299, CL1-5, Beas-2B, TC-1, MLE-12 cell lines, 18 to 24 hrs treatment. The protocol:
The effects of Compound A and Compound B on TMPRSS2 were investigated in A549 (human alveolar epithelial cell), H1299 (human non-small cell lung carcinoma cell), CL1-5 (human lung adenocarcinoma cell), Beas-2B (human normal bronchial epithelial cell), TC-1 (mouse lung epithelial cell) and MLE-12 (mouse lung epithelial cell) cell lines. The expression of TMPRSS2 in cells was analyzed by Western blotting, and a-tubulin was used as an internal control.
For orientation: In western blotting, separated proteins are transferred to a membrane and probed.

Test [1] concerns SARS-CoV-2 S pseudovirions. Put plainly: microbe, parasite or virus in culture. It counts as cell-based. The following applies: Severe acute respiratory syndrome coronavirus 2.
Where [2] appears, read: read-out: EC50, inhibition of cellular entry of SARS-CoV-2 S pseudovirions.

Consider `COc1ccc(/C=C/C(=O)C(F)(CC2CCC2)C(=O)/C=C/c2ccc(OC)c(OC)c2)cc1OC` [Compound A, 4-fluoro-4-cyclobutylmethyl-1,7-bis(3,4-dimethoxyphenyl)hepta-1,6-diene-3,5-dione], for which the “protein expression of TMPRSS2” value in the test with TMPRSS2 is reported as “inhibit the protein expression of TMPRSS2”. In addition, the 50% effective concentration (EC50) in test [1] (setting [2]) was roughly 5.3 µM.
As for `COc1ccc(/C=C/C(=O)C(CC2CCC2)C(=O)/C=C/c2ccc(OC)c(OC)c2)cc1OC` [Compound B, 4-(cyclobutylmethyl)-1,7-bis(3,4-dimethoxyphenyl)hepta-1,6-diene-3,5-dione], in the test with TMPRSS2, the “protein expression of TMPRSS2” value is reported as “inhibit the protein expression of TMPRSS2; also recorded: greater TMPRSS2 inhibitory activity as compared to Compound A”. Moreover, the EC50 in test [1] (setting [2]) was roughly 4.6 µM; in test [1] (read-out: EC50, prophylactic inhibition of cellular entry of pseudovirions, wild-type Spike), roughly 3.5 µM.

By EC50 is commonly meant the concentration at which the effect is half-maximal.
